# Experimental data from US20200024223A1, “CRYSTALLINE SALTS OF (4S,4AS,5AR,12AS)-4-DIMETHYLAMINO-3,10,12,12A-TETRAHYDROXY-7-[(METHOXY(METHYL)AMINO)-METHYL]-1,11-DIOXO-1,4,4A,5,5A,6,11,12A-OCTAHYDRO-NAPHTHACENE-2-CARBOXYLIC ACID AMIDE AND METHODS OF USING THE SAME” (priority 2011, published 2020).
# Values joined by “and” are separate entries in the source; they are usually repeats but may differ in a detail not shown here. Equal values may be shown once. Where a name gives a salt, the structure may show the parent alone.
# Tests used:
# E. coli = assay: In vitro MIC testing, antibacterial spectrum of activity; type: cell-based
# [1] = Storage stability by HPLC-UV (chemical purity, β-isomer content, total impurity content); type: physicochemical; conditions: for Chemical Purity at 0 days / β-isomer content at 0 days: 0 days (after synthesis); for Chemical Purity at 75 days / β-isomer content at 75 days: stored in glass vial approximately 75 days at ambient conditions; for Chemical Purity at 7 days, 40° C. and 75% RH / β-isomer content at 7 days, 40° C. and 75% RH: storage 7 days at 40° C. and 75% RH
# Description: The lower the β-isomer content, the higher the chemical purity of the salt. The β-isomer content is measured after synthesis of the salt and compared with the measured β-isomer content after storage for a designated period of time.
# Another measure of chemical purity is defined by the content of other related impurities, by-products or degradation products of the salt, which represents the […] of the compound. The lower the content of total impurities as measured by HPLC, generally, by HPLC-UV, the higher the chemical purity of the salt. The total impurity content is measured after synthesis of the salt and compared with the measured total impurity content after storage for a designated period of time.
# In order to determine the stability of Crystalline Mono Hydrochloride Salt, the β-isomer content of the salt was determined by HPLC-UV analysis and compared to the β-isomer content calculated after the salt was stored in an amber glass vial for approximately 75 days at ambient conditions.
# The β-isomer content of Comparative Example 2 was also determined by HPLC-UV analysis at 0 days and compared to the β-isomer content calculated after the compound was stored in a clear glass vial for approximately 75 days at ambient conditions.
# HPLC-UV and XRPD analysis were conducted on samples of Crystalline Mono Hydrochloride Salt, Crystalline Mesylate Salt and Crystalline Sulfate Salt at 0 days and after storage for 7 days at 40° C. and 75% RH. FIGS. 1, 4 and 7 show the XRPD analysis of the Crystalline Mono Hydrochloride Salt, Crystalline Mesylate Salt and Crystalline Sulfate Salt at 0 days and after storage at 40° C. and 75% RH with the graphs overlaid for comparison.
# The results of HPLC-UV analysis for the same samples of Crystalline Mesylate Salt and Crystalline Sulfate Salt are shown in Table 4.
# [2] = Advantages and disadvantages of solid forms (hygroscopicity, milling/pressing, storage); type: physicochemical; conditions: for Hygroscopicity: relative humidity (RH)
# Excerpt: One measure of the stability of the physical form of the salt is hygroscopicity, which is the propensity of a substance to absorb or adsorb water molecules from the surrounding environment. Whenever moisture can promote degradation, the salt is stable if it is non-hygroscopic or mildly hygroscopic above 70% relative humidity (RH). In preferred embodiments, the salt is non-hygroscopic or mildly hygroscopic above 80% RH, and in more preferred embodiments, the salt is non-hygroscopic or mildly hygroscopic to 90% RH. “Non-hygroscopic or mildly hygroscopic” as used herein refers to a compound at about 40° C. and at an RH of about 75%, existing over about 80% w/w in solid crystalline form, preferably over about 90% w/w in solid crystalline form, that absorbs less than 10% w/w water, and preferably, less than 5% w/w water in 8 hours or less. Hygroscopicity (hygroscopic degree) is calculated based on increase in weight in a compound at comparative points of measurement. Another measure of physical stability is the crystal form of the salt, which may be measured by XPRD. The stability of Crystalline Mono Hydrochloride Salt was compared to the amorphous mono hydrochloride salt of Comparative Example 2.
# [3] = Differential scanning calorimetry (DSC); type: physicochemical
# Description: DSC analysis as disclosed herein was collected on a TA Instruments Q2000 equipped with a 50 position auto-sampler. The instrument was calibrated for energy and temperature using certified indium. The calibration for thermal capacity was carried out using sapphire. […] A nitrogen purge at 50 ml.min^−1 was maintained over the sample. The instrument control software used was Advantage for Q Series v2.8.0.392 and Thermal Advantage v4.8.3 and the data was analyzed using Universal Analysis v4.4A. […] The observed apparent weight loss is due to instability of the machine. Table 5 below compares the DSC and TGA analysis of the crystalline salts of the present invention with the crystalline free base and Comparative Example 1.
# [4] = Thermo-gravimetric analysis (TGA); type: physicochemical
# Description: TGA is used to determine changes in weight in relation to change in temperature, which may reveal degradation of the compound and the presence of solvates or hydrates. TGA analysis as disclosed herein was collected on a TA Instruments Q500 TGA equipped with a 16 position auto-sampler. The instrument was temperature calibrated using certified Alumel and Nickel. […] A nitrogen purge at 60 ml.min^−1 was maintained over the sample. The instrument control and data analysis software used was Advantage for Q Series v2.8.0.392 and Thermal Advantage v4.8.3 and the data was analyzed using Universal Analysis v4.4A. […] The observed apparent weight loss is due to instability of the machine. Table 5 below compares the DSC and TGA analysis of the crystalline salts of the present invention with the crystalline free base and Comparative Example 1.
# [5] = XRPD analysis of crystal form after storage; type: physicochemical; conditions: 7 days at 40° C. and 75% RH vs 0 days
# Description: XRPD analysis as disclosed herein was collected on a Bruker AXS C2 GADDS diffractometer using Cu Kα radiation (40 kV, 40 mA), automated XYZ stage, laser video microscope for auto-sample positioning and a HiStar 2-dimensional area detector. X-ray optics consisted of a single Gbbel multilayer mirror coupled with a pinhole collimator of 0.3 mm. The software used for data collection was GADDS for WNT 4.1.16 and the data was analyzed and presented using Diffrac Plus EVA v 9.0.0.2 or v 13.0.0.2. Samples were analyzed under ambient conditions as flat plate specimens using powder as received. Approximately 1-2 mg of the sample was lightly pressed on a glass slide to obtain a flat surface. Samples analyzed under non-ambient conditions were mounted on a silicon wafer with a heat conducting compound. The sample was then heated to the appropriate temperature at approximately 20° C.min^−1 and subsequently held isothermally for approximately 1 minute before data collection was initiated.
# HPLC-UV and XRPD analysis were conducted on samples of Crystalline Mono Hydrochloride Salt, Crystalline Mesylate Salt and Crystalline Sulfate Salt at 0 days and after storage for 7 days at 40° C. and 75% RH. FIGS. 1, 4 and 7 show the XRPD analysis of the Crystalline Mono Hydrochloride Salt, Crystalline Mesylate Salt and Crystalline Sulfate Salt at 0 days and after storage at 40° C. and 75% RH with the graphs overlaid for comparison. […] The changes shown in the figure are in intensity and resolution rather than in peak position, which, if present, would indicate change in crystal form. Accordingly, Crystalline Mono Hydrochloride Salt and Crystalline Mesylate Salt are physically stable, as shown by FIGS. 1 and 4.
# S. agalactiae = assay: In vitro MIC testing, antibacterial spectrum of activity; type: cell-based
# S. pneumoniae = assay: as above; type: cell-based, Streptococcus pneumoniae; conditions: S. pneumoniae [PSSP] (32 isolates)
# S. pyogenes = assay: as above; type: cell-based; conditions: S. pyogenes (32 isolates)
# [6] = test system: Streptococcus spp. [Group C]; assay: as above; type: cell-based; conditions: Streptococcus spp. [Group C] (30 isolates)
# [7] = from about 30° C. to about 200° C.
# [8] = from about 200° C. to about 250° C.
molecule,measurement,setting,value
CC(=O)OCC1=C(C(=O)O)N2C(=O)[C@@H](NC(=O)Cc3cccs3)[C@H]2SC1 [Cephalothin],MIC50,"E. coli; Escherichia coli, read-out: MIC50",32 µg/mL
"CON(C)Cc1ccc(O)c2c1C[C@H]1C[C@H]3[C@H](N(C)C)C(O)=C(C(N)=O)C(=O)[C@@]3(O)C(O)=C1C2=O [Comparative Example 2, (4S,4aS,5aR,12aS)-4-dimethylamino-3,10,12,12a-tetrahydroxy-7-[(methoxy(methyl)amino)-methyl]-1,11-dioxo-1,4,4a,5,5a,6,11,12a-octahydro-naphthacene-2-carboxylic acid amide]",Chemical Purity at 0 days,[1]; HPLC-UV,94.3%
same,β-isomer content at 0 days,[1]; HPLC-UV,4.4%
same,Chemical Purity at 75 days,[1]; HPLC-UV,90.4%
same,β-isomer content at 75 days,[1]; HPLC-UV,7.8%
same,increase of β-isomer content after storage,[1]; storage for 75 days at ambient conditions vs 0 days,over 80%
same,glass transition,[2],High glass transition (166° C.)
same,β-isomer content upon storage at 63% RH,[2]; 63% RH,Increase in β-isomer content upon
same,Change in form (amorphous to crystalline),[2]; above 75% RH,Change in form (from amorphous
same,β-isomer content upon storage under ambient conditions,[2],Increase in β-isomer content upon
same,rate of β-isomer formation upon exposure to solvent,[2]; compared to Crystalline Mono Hydrochloride Salt,Faster rate of β-isomer formation
same,form or β-isomer content upon milling or pressing,[2],Increase in β-isomer content upon
same,Hygroscopicity,[2],Hygroscopic above 70% RH
same,crystallization upon storage and heat/cool cycle,[2]; storage and heat/cool cycle,Stable to crystallization upon
"CON(C)Cc1ccc(O)c2c1C[C@H]1C[C@H]3[C@H](N(C)C)C(O)=C(C(N)=O)C(=O)[C@@]3(O)C(O)=C1C2=O [Crystalline Free Base, (4S,4aS,5aR,12aS)-4-dimethylamino-3,10,12,12a-tetrahydroxy-7-[(methoxy(methyl)amino)-methyl]-1,11-dioxo-1,4,4a,5,5a,6,11,12a-octahydro-naphthacene-2-carboxylic acid amide]",DSC endothermic peak,[3],175 °C (ΔH 72 J · g^−1)
same,TGA weight loss,[4]; from about 30° C. to decomposition at less than 220° C.,15% weight loss from about 30 °C
"CON(C)Cc1ccc(O)c2c1C[C@H]1C[C@H]3[C@H](N(C)C)C(O)=C(C(N)=O)C(=O)[C@@]3(O)C(O)=C1C2=O [Crystalline Mesylate Salt, (4S,4aS,5aR,12aS)-4-dimethylamino-3,10,12,12a-tetrahydroxy-7-[(methoxy(methyl)amino)-methyl]-1,11-dioxo-1,4,4a,5,5a,6,11,12a-octahydro-naphthacene-2-carboxylic acid amide]",Chemical Purity at 0 days,[1]; HPLC-UV,92%
same,β-isomer content at 0 days,[1]; HPLC-UV,3%
same,"Chemical Purity at 7 days, 40° C. and 75% RH",[1]; HPLC-UV,98%
same,"β-isomer content at 7 days, 40° C. and 75% RH",[1]; HPLC-UV,2%
same,crystal form by XRPD after storage,[5],no change in crystal form
same,TGA weight loss,[4]; [7],3% weight loss from about 30 °C to
same,TGA weight loss,[4]; [8],7% weight loss from about 200 °C
"CON(C)Cc1ccc(O)c2c1C[C@H]1C[C@H]3[C@H](N(C)C)C(O)=C(C(N)=O)C(=O)[C@@]3(O)C(O)=C1C2=O [Crystalline Mono Hydrochloride Salt, (4S,4aS,5aR,12aS)-4-dimethylamino-3,10,12,12a-tetrahydroxy-7-[(methoxy(methyl)amino)-methyl]-1,11-dioxo-1,4,4a,5,5a,6,11,12a-octahydro-naphthacene-2-carboxylic acid amide]",total impurity content at 0 days,"[1]; HPLC-UV, 0 days",4 % peak area
same,Chemical Purity at 0 days,[1]; HPLC-UV,93.8% and 95.8%
same,β-isomer content at 0 days,[1]; HPLC-UV,3.8%
same,Chemical Purity at 75 days,[1]; HPLC-UV,94.8%
same,β-isomer content at 75 days,[1]; HPLC-UV,3.8%
same,total impurity content after storage,[1]; about 6 months at about 40° C. and about 75% RH,6 % peak area
same,β-isomer content upon storage under ambient conditions,[2],No increase in β-isomer content
same,form or β-isomer content upon milling or pressing,[2],No change in form or β-isomer
same,crystallinity upon pressing and milling,[2]; pressing and milling,Some loss of crystallinity upon
same,Hygroscopicity,[2],Non-hygroscopic to 90% RH
same,crystal form by XRPD after storage,[5],no change in crystal form
same,TGA weight loss,[4]; [7],3% weight loss from about 30 °C to
same,TGA weight loss,[4]; [8],14% weight loss from about 200 °C
"CON(C)Cc1ccc(O)c2c1C[C@H]1C[C@H]3[C@H](N(C)C)C(O)=C(C(N)=O)C(=O)[C@@]3(O)C(O)=C1C2=O [Crystalline Sulfate Salt, (4S,4aS,5aR,12aS)-4-dimethylamino-3,10,12,12a-tetrahydroxy-7-[(methoxy(methyl)amino)-methyl]-1,11-dioxo-1,4,4a,5,5a,6,11,12a-octahydro-naphthacene-2-carboxylic acid amide]",Chemical Purity at 0 days,[1]; HPLC-UV,88%
same,β-isomer content at 0 days,[1]; HPLC-UV,9%
same,"Chemical Purity at 7 days, 40° C. and 75% RH",[1]; HPLC-UV,91%
same,"β-isomer content at 7 days, 40° C. and 75% RH",[1]; HPLC-UV,9%
same,crystal form by XRPD after storage,[5],increased crystalline content
same,TGA weight loss,[4]; [7],3% weight loss from about 30 °C to
same,TGA weight loss,[4]; [8],14% weight loss from about 200 °C
"CN(C)[C@@H]1C(O)=C(C(N)=O)C(=O)[C@@]2(O)C(O)=C3C(=O)c4c(O)cccc4[C@@](C)(O)[C@H]3C[C@@H]12 [Tetracycline, tetracycline]",MIC Range,S. agalactiae; S. agalactiae [tetR] (7 isolates),16 to 64 µg/mL
same,MIC Range,S. agalactiae; S. agalactiae [tetS] (3 isolates),0.25-0.25 μg/mL
same,MIC Range,E. coli; E. coli [tetS] (7 isolates),1 to 4 µg/mL
Penicillin,MIC50,S. pneumoniae,≤0.015 µg/mL
same,MIC Range,S. pneumoniae,≤0.015 to 0.12 µg/mL
same,MIC50,S. pyogenes,≤0.015 µg/mL
same,MIC90,S. pyogenes,≤0.015 µg/mL
same,MIC Range,S. pyogenes,≤0.015 to 0.25 µg/mL
same,MIC Range,S. agalactiae; S. agalactiae (31 isolates),≤0.015 to 2 µg/mL
same,MIC50,[6],≤0.015 µg/mL
same,MIC90,[6],≤0.015 µg/mL
same,MIC Range,[6],≤0.015 to 0.03 µg/mL
